Like-named read-outs stand apart in the source and are kept apart here.
Assays:
Assay type in all cases: cell-based
C. albicans ATCC 10231 [1] = assay: Preservation stress test, example formulation 2 (roll-on deodorant formulation); settings: 1% active substance
Description: (§1) Preservation stress tests (PSTs) were carried out in order to determine the preserving activity of the diols. In the preservation stress test, this is simulated through artificial loadings with microorganisms. These can either be inoculated as mixed population or individually in mixtures independent of one another. The inoculated product samples are incubated under defined conditions and, after defined times, samples are taken in order to determine the germ loading. In the case of adequate preservation, the number of microorganisms should, depending on the type, either decrease or remain constant in order to satisfy the requirements specified, e.g. in Ph. Eur. 6.0. To investigate the preserving effect of the diols, application-typical amounts of the diols were incorporated into example formulations. […] [table] These example formulations were used to prepare various mixtures which each comprised 1% active substance or comprised water instead of the active substance as placebo mixtures. These mixtures were in each case inoculated with the test germs such that a germ loading of 10^5-10^6 CFU/g was present in the test mixture. The bacteria were either used individually for the inoculation or as a mixed culture. To determine the starting germ count, immediately after inoculation, an aliquot was taken, diluted in dilution medium (phosphate buffer, 0.07 molar pH 7.4 (+/−0.2), with 1% Tween 80+0.3% soya lecithin), and the surviving germ count was determined in the dilution stages 10^−1 to 10^−3. The inoculated product samples then incubated for a total of 28 d at 20-25° C. After 2 d, 7 d, 14 d and after 28 d, aliquots were taken and diluted in dilution medium (phosphate buffer, 0.07 molar pH 7.4 (+/−0.2), with 1% Tween 80+0.3% soya lecithin). The surviving germ counts were determined in the dilution stages 10^−1 to 10^−4. The reference point taken for determining the reduction in germ count was the respective initial value of the sample. The results were given as logarithmic reductions.

S. aureus ATCC 6538 = assay: as above; settings: 1% active substance
Description: as §1

A. niger ATCC 16404 [2] = assay: as above; settings: 1% active substance
Description: as §1

[3] = system: series of tested microorganisms (bacteria and fungi); assay: Microstatic activity, highest MIC from the series of tested microorganisms; settings: highest measured MIC from the series of tested microorganisms
Description: The following microorganisms were used;to test the biocidal effect against various bacteria and fungi: In each case, the MIC (Minimum Inhibitory Concentration) value was determined. This value indicates the minimum concentration above which the growth of the microorganisms was visibly hindered compared to the corresponding sample without addition of the diol. The MIC value stated is a range between the next higher concentration of a positive test and the same and/or lower concentration of a first negative test. In the last line of each of the tables below, a “maximum” value is listed. This value indicates the highest measured MIC value in each case from the series of tested microorganisms.

[4] = system: P. aeruginosa NCIMB 10421; assay: Microstatic activity, MIC in tryptone soy broth; settings: Pseudomonas aeruginosa, NCIMB10421, 30° C., 48 hours
Description: (§2) For this, in each case a 40 percent strength by weight solution of a diol in propylene glycol was prepared at 60° C. This solution was diluted with a double-strength soy solution (double-strength tryptone soy broth) as nutrient medium in the volume ratio 1:1. Further dilution with soy solution produced solutions with the following concentrations: 400 000 ppm (40%), 200 000 ppm (20%), 100 000 ppm (10%), 50 000 ppm (5%), 25 000 ppm (2.5%), 12 500 ppm (1.25%), 6250 ppm (0.625%), 3125 ppm (0.3125%). Pure soy solution was used as negative control. The positive control used was a solution of 5 ml of soy solution which has been treated with 0.1 ml of the respective microorganism. The test solutions consisted of 5 ml of the above-described soy solutions of the diols in the particular concentration which have been mixed with 0.1 ml of the respective microorganism. The samples and controls were incubated in the case of the bacteria at 30° C. for 48 hours, and in the case of fungi over 5 days at 25° C. In each case, the MIC (Minimum Inhibitory Concentration) value was determined. This value indicates the minimum concentration above which the growth of the microorganisms was visibly hindered compared to the corresponding sample without addition of the diol. […] For example, this was evident from the occurrence of clouding or visible growth of the microorganism. […] The MIC value stated is a range between the next higher concentration of a positive test and the same and/or lower concentration of a first negative test.

P. vulgaris NCIMB 4175 = assay: Microstatic activity, MIC in tryptone soy broth; settings: Proteus vulgaris, NCIMB4175, 30° C., 48 hours
Description: as §2

A. niger IMI 149007 = assay: Microstatic activity, MIC in tryptone soy broth; settings: Aspergillus niger, IMI149007, 120 h, 25° C., 5 days
Description: as §2

S. aureus NCIMB 9578 = assay: Microstatic activity, MIC in tryptone soy broth; settings: Staphylococcus aureus, NCIMB9578, 30° C., 48 hours
Description: as §2

E. coli NCIMB 8545 = assay: Microstatic activity, MIC in tryptone soy broth; settings: Escherichia coli, NCIMB8545, 30° C., 48 hours
Description: as §2

C. albicans NCPF 3179 = assay: Microstatic activity, MIC in tryptone soy broth; settings: Candida albicans, NCPF3179, 120 h, 25° C., 5 days
Description: as §2

C. albicans ATCC 10231 [5] = assay: Preservation stress test, example formulation 1 (standard emulsion O/W); settings: 1% active substance
Description: as §1

A. niger ATCC 16404 [6] = assay: as above; settings: 1% active substance
Description: as §1

[7] = lower limit, read-out: Maximum MIC value (ppm of diol), from
[8] = upper limit, read-out: Maximum MIC value (ppm of diol), to
[9] = lower limit of MIC range, read-out: MIC value (ppm of diol), from
[10] = upper limit of MIC range, read-out: MIC value (ppm of diol), to

Structure (SMILES)	Microbicidal activity given as logarithmic reduction in germ count (C. albicans ATCC 10231 [1]; 48 h)	Microbicidal activity given as logarithmic reduction in germ count (C. albicans ATCC 10231 [1]; 7 d)	Microbicidal activity given as logarithmic reduction in germ count (C. albicans ATCC 10231 [1]; 14 d)	Microbicidal activity given as logarithmic reduction in germ count (S. aureus ATCC 6538; 48 h)	Microbicidal activity given as logarithmic reduction in germ count (S. aureus ATCC 6538; 7 d)	Microbicidal activity given as logarithmic reduction in germ count (S. aureus ATCC 6538; 14 d)	Microbicidal activity given as logarithmic reduction in germ count (A. niger ATCC 16404 [2]; 48 h)	Microbicidal activity given as logarithmic reduction in germ count (A. niger ATCC 16404 [2]; 7 d)	Microbicidal activity given as logarithmic reduction in germ count (A. niger ATCC 16404 [2]; 14 d)	MIC [3, 7]	MIC [3, 8]	MIC [4, 9]	MIC [4, 10]	MIC (P. vulgaris NCIMB 4175; [9])	MIC (P. vulgaris NCIMB 4175; [10])	MIC (A. niger IMI 149007; [9])	MIC (A. niger IMI 149007; [10])	MIC (S. aureus NCIMB 9578; [9])	MIC (S. aureus NCIMB 9578; [10])	MIC (E. coli NCIMB 8545; [9])	further results
CCCC(O)CO (stereo not drawn) [1,2-Pentanediol, 1,2-pentanediol, reference compound]	0 log. Red.	0 log. Red.	0 log. Red.	1 log. Red.	1 log. Red.	5 log. Red.	0 log. Red.	0 log. Red.	0 log. Red.	> 25 mg/mL	≤ 50 mg/mL	> 12.5 mg/mL	≤ 25 mg/mL	> 25 mg/mL	≤ 50 mg/mL	> 12.5 mg/mL	≤ 25 mg/mL	> 25 mg/mL	≤ 50 mg/mL	> 25 mg/mL	MIC (E. coli NCIMB 8545; [10]): ≤ 50 mg/mL; MIC (C. albicans NCPF 3179; [9]): > 25 mg/mL; MIC (C. albicans NCPF 3179; [10]): ≤ 50 mg/mL; Microbicidal activity given as logarithmic reduction in germ count (C. albicans ATCC 10231 [5]; 48 h): 0 log. Red.; Microbicidal activity given as logarithmic reduction in germ count (C. albicans ATCC 10231 [5]; 7 d): 0 log. Red.; Microbicidal activity given as logarithmic reduction in germ count (C. albicans ATCC 10231 [5]; 14 d): 0 log. Red.; Microbicidal activity given as logarithmic reduction in germ count (A. niger ATCC 16404 [6]; 48 h): 0 log. Red.; Microbicidal activity given as logarithmic reduction in germ count (A. niger ATCC 16404 [6]; 7 d): 0 log. Red.; Microbicidal activity given as logarithmic reduction in germ count (A. niger ATCC 16404 [6]; 14 d): 0 log. Red.
OCC1(CO)CC2CCC1C2 (stereo not drawn) [2,2-DMNB, 2,2-dimethylolnorbornane]	0 log. Red.	≧3 log. Red.	0 log. Red.	≧3 log. Red.	5 log. Red.	5 log. Red.	0 log. Red.	0 log. Red.	0 log. Red.	> 50 mg/mL	≤ 100 mg/mL	> 12.5 mg/mL	≤ 25 mg/mL	> 6.25 mg/mL	≤ 12.5 mg/mL	> 25 mg/mL	≤ 50 mg/mL	> 12.5 mg/mL	≤ 25 mg/mL	> 3.12 mg/mL	Microbicidal activity given as logarithmic reduction in germ count (S. aureus ATCC 6538; 28 d): 5 log. Red.; MIC (E. coli NCIMB 8545; [10]): ≤ 6.25 mg/mL; MIC (C. albicans NCPF 3179; [9]): > 50 mg/mL; MIC (C. albicans NCPF 3179; [10]): ≤ 100 mg/mL; Microbicidal activity given as logarithmic reduction in germ count (C. albicans ATCC 10231 [5]; 48 h): 1 log. Red.; Microbicidal activity given as logarithmic reduction in germ count (C. albicans ATCC 10231 [5]; 7 d): ≧3 log. Red.; Microbicidal activity given as logarithmic reduction in germ count (C. albicans ATCC 10231 [5]; 14 d): 5 log. Red.; Microbicidal activity given as logarithmic reduction in germ count (C. albicans ATCC 10231 [5]; 28 d): 5 log. Red.; Microbicidal activity given as logarithmic reduction in germ count (A. niger ATCC 16404 [6]; 48 h): 0 log. Red.; Microbicidal activity given as logarithmic reduction in germ count (A. niger ATCC 16404 [6]; 7 d): 0 log. Red.; Microbicidal activity given as logarithmic reduction in germ count (A. niger ATCC 16404 [6]; 14 d): 0 log. Red.; Microbicidal activity given as logarithmic reduction in germ count (A. niger ATCC 16404 [6]; 28 d): 0 log. Red.
OCC1(CO)CCCC1 [DMCP, 1,1-dimethylolcyclopentane]	0 log. Red.	0 log. Red.	0 log. Red.	≧3 log. Red.	5 log. Red.	5 log. Red.	0 log. Red.	0 log. Red.	0 log. Red.	> 50 mg/mL	≤ 100 mg/mL	> 12.5 mg/mL	≤ 25 mg/mL	> 12.5 mg/mL	≤ 25 mg/mL	> 50 mg/mL	≤ 100 mg/mL	> 3.12 mg/mL	≤ 6.25 mg/mL	> 3.12 mg/mL	Microbicidal activity given as logarithmic reduction in germ count (S. aureus ATCC 6538; 28 d): 5 log. Red.; MIC (E. coli NCIMB 8545; [10]): ≤ 6.25 mg/mL; MIC (C. albicans NCPF 3179; [9]): > 25 mg/mL; MIC (C. albicans NCPF 3179; [10]): ≤ 50 mg/mL; Microbicidal activity given as logarithmic reduction in germ count (C. albicans ATCC 10231 [5]; 48 h): ≧3 log. Red.; Microbicidal activity given as logarithmic reduction in germ count (C. albicans ATCC 10231 [5]; 7 d): 5 log. Red.; Microbicidal activity given as logarithmic reduction in germ count (C. albicans ATCC 10231 [5]; 14 d): 5 log. Red.; Microbicidal activity given as logarithmic reduction in germ count (C. albicans ATCC 10231 [5]; 28 d): 5 log. Red.; Microbicidal activity given as logarithmic reduction in germ count (A. niger ATCC 16404 [6]; 48 h): 2 log. Red.; Microbicidal activity given as logarithmic reduction in germ count (A. niger ATCC 16404 [6]; 7 d): 1 log. Red.; Microbicidal activity given as logarithmic reduction in germ count (A. niger ATCC 16404 [6]; 14 d): 2 log. Red.; Microbicidal activity given as logarithmic reduction in germ count (A. niger ATCC 16404 [6]; 28 d): 2 log. Red.

Source: US20120152149A1, “USE OF 1,3-DIOLS AS BIOCIDES” (BASF SE, priority 2009, published 2012)
